PubChem BioAssay AID1745844 (Carcinogenic Potency Database (CPDB), 2022)
Calls of active or inactive are those of the source. No rule for the calls is given here.

System: rodent lifetime carcinogenesis bioassay, tumor incidence TD50
Assay: chronic cancer bioassays in animals – CPDB, compiled studies (AID 1745844)

## FCC(F)(F)F
mouse, strain B6C3F1, females, inhaled, site: liver, lesion: hepatocellular adenoma, dosed 104 weeks, study length 104 weeks
  carcinogen call: negative (inactive)
mouse, strain B6C3F1, females, inhaled, site: liver, lesion: hepatocellular carcinoma, dosed 104 weeks, study length 104 weeks
  carcinogen call: negative (inactive)
mouse, strain B6C3F1, females, inhaled, site: lung, lesion: alveolar/bronchiolar tumor, dosed 104 weeks, study length 104 weeks
  carcinogen call: negative (inactive)
mouse, strain B6C3F1, males, inhaled, site: liver, lesion: hepatocellular adenoma, dosed 104 weeks, study length 104 weeks
  TD50: 1.5e+06 mg/kg/day (inactive)
mouse, strain B6C3F1, males, inhaled, site: liver, lesion: hepatocellular carcinoma, dosed 104 weeks, study length 104 weeks
  TD50: 260000 mg/kg/day (inactive)
mouse, strain B6C3F1, males, inhaled, site: lung, lesion: alveolar/bronchiolar tumor, dosed 104 weeks, study length 104 weeks
  carcinogen call: negative (inactive)
rat, strain Alpk:APfSD, males, inhaled, site: testis, lesion: Leydig-cell adenoma, dosed 104 weeks, study length 104 weeks
  TD50: 29900 mg/kg/day
rat, strain Han-Ibm Wistar, females, inhaled, site: liver, lesion: hepatocellular carcinoma, dosed 108 weeks, study length 108 weeks
  TD50: 2.8e+06 mg/kg/day (inactive)
rat, strain Han-Ibm Wistar, males, inhaled, site: liver, lesion: hepatocellular adenoma, dosed 108 weeks, study length 108 weeks
  TD50: 70100 mg/kg/day (inactive)
rat, strain Han-Ibm Wistar, males, inhaled, site: liver, lesion: hepatocellular carcinoma, dosed 108 weeks, study length 108 weeks
  TD50: 140000 mg/kg/day (inactive)
rat, strain Han-Ibm Wistar, males, inhaled, site: testis, lesion: interstitial-cell tumor, dosed 108 weeks, study length 108 weeks
  carcinogen call: negative (inactive)

## ClC1(Cl)C2(Cl)C3(Cl)C4(Cl)C(Cl)(Cl)C5(Cl)C3(Cl)C1(Cl)C5(Cl)C24Cl (stereo not given)
mouse, strain B6AKF1, females, oral dosing, site: any site (literature study), lesion: several types, types named in the paper, dosed 68 weeks, study length 68 weeks
  TD50: 1.26 mg/kg/day
mouse, strain B6AKF1, females, oral dosing, site: liver, lesion: hepatoma, dosed 68 weeks, study length 68 weeks
  TD50: 1.1 mg/kg/day
mouse, strain B6AKF1, males, oral dosing, site: any site (literature study), lesion: several types, types named in the paper, dosed 58 weeks, study length 58 weeks
  TD50: 3.32 mg/kg/day
mouse, strain B6AKF1, males, oral dosing, site: liver, lesion: hepatoma, dosed 58 weeks, study length 58 weeks
  TD50: 2.13 mg/kg/day
mouse, strain B6C3F1, females, oral dosing, site: any site (literature study), lesion: several types, types named in the paper, dosed 69 weeks, study length 69 weeks
  TD50: 1.6 mg/kg/day
mouse, strain B6C3F1, females, oral dosing, site: liver, lesion: hepatoma, dosed 69 weeks, study length 69 weeks
  TD50: 1.6 mg/kg/day
mouse, strain B6C3F1, males, oral dosing, site: any site (literature study), lesion: several types, types named in the paper, dosed 58 weeks, study length 58 weeks
  TD50: 1.5 mg/kg/day
mouse, strain B6C3F1, males, oral dosing, site: liver, lesion: hepatoma, dosed 58 weeks, study length 58 weeks
  TD50: 1.83 mg/kg/day
mouse, strain B6C3F1, males, oral dosing, site: liver, lesion: several types, types named in the paper, dosed 58 weeks, study length 58 weeks
  TD50: 1.5 mg/kg/day
rat, strain Fischer 344, females, in feed, site: any site (literature study), lesion: several types, types named in the paper, dosed 104 weeks, study length 105 weeks
  TD50: 21.9 mg/kg/day
rat, strain Fischer 344, females, in feed, site: any site (literature study), lesion: several types, types named in the paper, dosed 104 weeks, study length 107 weeks
  TD50: 22.4 mg/kg/day
rat, strain Fischer 344, females, in feed, site: liver + multiple organs + spleen, lesion: hepatocellular carcinoma + neoplastic nodule + mononuclear-cell leukemia, dosed 104 weeks, study length 105 weeks
  TD50: 3.34 mg/kg/day
rat, strain Fischer 344, females, in feed, site: liver, lesion: hepatocellular adenoma + hepatocellular carcinoma + neoplastic nodule, dosed 104 weeks, study length 105 weeks
  TD50: 3.17 mg/kg/day
rat, strain Fischer 344, females, in feed, site: liver, lesion: hepatocellular adenoma + hepatocellular carcinoma + neoplastic nodule, dosed 104 weeks, study length 107 weeks
  TD50: 16.5 mg/kg/day
rat, strain Fischer 344, females, in feed, site: liver, lesion: hepatocellular carcinoma + neoplastic nodule, dosed 104 weeks, study length 105 weeks
  TD50: 3.17 mg/kg/day
rat, strain Fischer 344, females, in feed, site: liver, lesion: neoplastic nodule, dosed 104 weeks, study length 105 weeks
  TD50: 3.22 mg/kg/day
rat, strain Fischer 344, females, in feed, site: multiple organs + spleen, lesion: mononuclear-cell leukemia, dosed 104 weeks, study length 105 weeks
  TD50: 15.7 mg/kg/day
rat, strain Fischer 344, females, in feed, site: multiple organs + spleen, lesion: mononuclear-cell leukemia, dosed 104 weeks, study length 107 weeks
  TD50: 5.97 mg/kg/day
rat, strain Fischer 344, males, in feed, site: adrenal gland + kidney/pelvis + liver, lesion: pheochromocytoma + pheochromocytoma, malignant + transitional-cell papilloma + hepatocellular carcinoma + neoplastic nodule, dosed 104 weeks, study length 104 weeks
  TD50: 0.669 mg/kg/day
rat, strain Fischer 344, males, in feed, site: adrenal gland, lesion: pheochromocytoma + pheochromocytoma, malignant, dosed 104 weeks, study length 104 weeks
  TD50: 1.43 mg/kg/day
rat, strain Fischer 344, males, in feed, site: any site (literature study), lesion: several types, types named in the paper, dosed 104 weeks, study length 104 weeks
  TD50: 0.618 mg/kg/day
rat, strain Fischer 344, males, in feed, site: kidney/pelvis, lesion: transitional-cell papilloma, dosed 104 weeks, study length 104 weeks
  TD50: 13.5 mg/kg/day
rat, strain Fischer 344, males, in feed, site: liver, lesion: hepatocellular adenoma + hepatocellular carcinoma + neoplastic nodule, dosed 104 weeks, study length 104 weeks
  TD50: 0.825 mg/kg/day
rat, strain Fischer 344, males, in feed, site: liver, lesion: hepatocellular carcinoma + neoplastic nodule, dosed 104 weeks, study length 104 weeks
  TD50: 0.825 mg/kg/day
rat, strain Fischer 344, males, in feed, site: liver, lesion: hepatocellular carcinoma, dosed 104 weeks, study length 104 weeks
  TD50: 7.09 mg/kg/day
rat, strain Fischer 344, males, in feed, site: liver, lesion: neoplastic nodule, dosed 104 weeks, study length 104 weeks
  TD50: 0.87 mg/kg/day
rat, strain Fischer 344, males, in feed, site: testis, lesion: interstitial-cell tumor, dosed 104 weeks, study length 104 weeks
  TD50: 0.708 mg/kg/day
rat, strain Fischer 344, males, in feed, site: thyroid gland, lesion: follicular-cell adenoma + follicular-cell carcinoma, dosed 104 weeks, study length 104 weeks
  TD50: 10.4 mg/kg/day
rat, strain Fischer 344, males, in feed, site: thyroid gland, lesion: follicular-cell adenoma, dosed 104 weeks, study length 104 weeks
  TD50: 12.7 mg/kg/day
